The results in this text go back to US20260226065A1, “SUBSTITUTED BENZENE COMPOUND” (DAIICHI SANKYO COMPANY, LIMITED, priority 2023, published 2026).

Data set [1] in a line: Pharmacokinetics test in mice (plasma and brain concentration, LC/MS/MS). Format: in vivo. The following applies: mouse; male BALB/c mice; oral 10 mg/kg; two hours after administration; concentration in brain homogenate standardized with concentration in plasma. On the procedure:
Two hours after oral administration of the test compound (10 mg/kg) to male BALB/c mice, blood was collected from the posterior vena cava under isoflurane anesthesia, and plasma was obtained by centrifugation. In addition, the brain was collected after euthanasia by exsanguination, and distilled water was added to the obtained brain sample in an amount four times the wet weight of the brain to prepare a 20% homogenate. The compound concentrations in the obtained plasma and brain homogenate were measured by LC/MS/MS. The central transfer parameter Kp, brain was calculated by standardizing the concentration in the brain homogenate with the concentration in plasma. In the table, Ex indicates the example number. […].

The next data set deals with T1, NLRP3 inflammasome (Homo sapiens, UniProt Q96P20).
T1 construct: endogenous in cells; host or cells: THP-1 (human monocyte-derived), PMA-differentiated, Nigericin-stimulated
In words: In vitro IL-1β production test (PMA-differentiated THP-1 cells, Nigericin stimulation, AlphaLISA). Type of data set: cell-based. The following applies: inhibition of IL-1β production; THP-1 cells differentiated with 200 nM PMA; 0.015 mM Nigericin; 2 hours. The essentials:
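THP-1 cells were differentiated one day with 200 nM PMA, then given serum-free medium with 0.015 mM nigericin plus compound for 2 h. Supernatant IL-1β was measured by AlphaLISA, with nigericin alone as 0% and unstimulated as 100% inhibition. IC50 came from logistic sigmoid fitting.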
A general note: In Alpha technology, singlet oxygen from a donor bead excites a nearby acceptor bead.

T1 sequence (Q96P20 whole entry): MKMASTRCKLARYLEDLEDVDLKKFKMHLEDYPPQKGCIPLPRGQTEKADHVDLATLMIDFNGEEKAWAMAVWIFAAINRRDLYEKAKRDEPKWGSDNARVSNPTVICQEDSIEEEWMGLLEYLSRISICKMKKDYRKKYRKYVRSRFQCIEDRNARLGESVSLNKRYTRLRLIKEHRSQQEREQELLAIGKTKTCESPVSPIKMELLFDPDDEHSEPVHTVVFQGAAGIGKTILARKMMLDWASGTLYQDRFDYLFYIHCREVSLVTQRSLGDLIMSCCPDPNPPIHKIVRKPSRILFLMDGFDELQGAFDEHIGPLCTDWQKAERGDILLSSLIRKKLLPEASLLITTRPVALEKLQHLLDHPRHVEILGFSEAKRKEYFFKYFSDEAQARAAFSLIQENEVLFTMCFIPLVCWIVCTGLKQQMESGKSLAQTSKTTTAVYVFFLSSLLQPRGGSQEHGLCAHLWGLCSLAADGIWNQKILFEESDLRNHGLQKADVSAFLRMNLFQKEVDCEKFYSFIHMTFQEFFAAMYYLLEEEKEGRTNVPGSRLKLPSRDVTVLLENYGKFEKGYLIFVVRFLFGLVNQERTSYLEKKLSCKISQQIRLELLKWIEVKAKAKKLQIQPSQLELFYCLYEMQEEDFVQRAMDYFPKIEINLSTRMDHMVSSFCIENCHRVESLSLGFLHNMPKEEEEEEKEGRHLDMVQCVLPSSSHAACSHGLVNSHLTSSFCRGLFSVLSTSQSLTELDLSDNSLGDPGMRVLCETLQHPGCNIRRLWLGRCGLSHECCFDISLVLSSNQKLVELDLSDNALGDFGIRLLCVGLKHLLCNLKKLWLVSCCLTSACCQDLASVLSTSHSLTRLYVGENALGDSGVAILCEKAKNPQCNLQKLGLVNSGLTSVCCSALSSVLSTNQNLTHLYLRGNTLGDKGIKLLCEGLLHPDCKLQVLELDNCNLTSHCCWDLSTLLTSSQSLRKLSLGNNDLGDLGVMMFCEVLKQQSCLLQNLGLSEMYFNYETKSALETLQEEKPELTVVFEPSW

Broadly, the Kp is tissue or fluid exposure divided by exposure in the circulation. Usually IC50 stands for the midpoint of a concentration-inhibition curve. In turn, `Cc1cc(Cl)cc(O)c1-c1cc2c(F)cn([C@H]3C[C@@](C)(O)C3)c2nn1` [Example 27, 5-chloro-2-{5-fluoro-7-[(1s,3s)-3-hydroxy-3-methylcyclobutyl]-7H-pyrrolo[2,3-c]pyridazin-3-yl}-3-methylphenol] returned a Kp at 2 h in data set [1] of 0.92. In addition, the IC50 against NLRP3 inflammasome was determined as 25.6 nM. The like results for `Cc1cc(C(F)(F)F)cc(O)c1-c1cc2c(C)cn([C@H]3C[C@@](C)(O)C3)c2nn1` [Example 4, 2-{7-[(1s,3s)-3-hydroxy-3-methylcyclobutyl]-5-methyl-7H-pyrrolo[2,3-c]pyridazin-3-yl}-3-methyl-5-(trifluoromethyl)phenol] were, in that order, 0.65 and 19.8 nM. With `Cc1cc(C(F)(F)F)cc(O)c1-c1cc2ccn([C@H]3C[C@@](C)(O)C3)c2nn1` [Example 3, 2-{7-[(1s,3s)-3-hydroxy-3-methylcyclobutyl]-7H-pyrrolo[2,3-c]pyridazin-3-yl}-3-methyl-5-(trifluoromethyl)phenol], the Kp at 2 h in data set [1] amounted to 1.1. The half-inhibitory concentration (IC50) at NLRP3 inflammasome was found to be 52.5 nM. The like results for `Cc1cc(C(F)(F)F)cc(O)c1-c1cc2c(OC(F)F)cn([C@H]3C[C@@](C)(O)C3)c2nn1` [Example 21, 2-{5-(difluoromethoxy)-7-[(1s,3s)-3-hydroxy-3-methylcyclobutyl]-7H-pyrrolo[2,3-c]pyridazin-3-yl}-3-methyl-5-(trifluoromethyl)phenol] were, in that order, 0.83 and 19.8 nM. Molecule `Cc1cc(C(F)(F)F)cc(O)c1-c1cc2c(F)cn([C@H]3C[C@@](C)(O)C3)c2nn1` [Example 5, 2-{5-fluoro-7-[(1s,3s)-3-hydroxy-3-methylcyclobutyl]-7H-pyrrolo[2,3-c]pyridazin-3-yl}-3-methyl-5-(trifluoromethyl)phenol] gave a Kp at 2 h in data set [1] of 1.68. This molecule also showed a concentration for half-maximal inhibition (IC50) at NLRP3 inflammasome of 31.3 nM. The corresponding values for `COc1cn([C@H]2C[C@@](C)(O)C2)c2nnc(-c3c(C)cc(C(F)(F)F)cc3O)cc12` [Example 10, 2-{7-[(1s,3s)-3-hydroxy-3-methylcyclobutyl]-5-methoxy-7H-pyrrolo[2,3-c]pyridazin-3-yl}-3-methyl-5-(trifluoromethyl)phenol] are 0.7 and 23.7 nM. As for `Cc1cc(C(F)(F)F)cc(O)c1-c1cc2c3c(n([C@H]4C[C@@](C)(O)C4)c2nn1)COC3` [Example 99, 2-{8-[(1s,3s)-3-hydroxy-3-methylcyclobutyl]-7,8-dihydro-5H-furo[3′,4′:4,5]pyrrolo[2,3-c]pyridazin-3-yl}-3-methyl-5-(trifluoromethyl)phenol], the IC50 at NLRP3 inflammasome is 9.53 nM. Same read-out and setting: next, `Cc1cc(C(F)(F)F)cc(O)c1-c1cc2ccn([C@H]3C[C@@](C)(O)[C@H]3C)c2nn1` (racemic) [Example 42, 2-{7-[(1S*,2S*,3R*)-3-hydroxy-2,3-dimethylcyclobutyl]-7H-pyrrolo[2,3-c]pyridazin-3-yl}-3-methyl-5-(trifluoromethyl)phenol]: 74 nM; `Cc1cc(C(F)(F)F)cc(O)c1-c1cc2c(C)cn(C34COCC(O)(C3)C4)c2nn1` [Example 65, 5-{3-[2-hydroxy-6-methyl-4-(trifluoromethyl)phenyl]-5-methyl-7H-pyrrolo[2,3-c]pyridazin-7-yl}-3-oxabicyclo[3.1.1]heptan-1-ol]: 47 nM.

Turning to `Cc1cc(C(F)(F)F)cc(O)c1-c1cc2ccn([C@@H]3CCCN(C)C3)c2nn1` [Example 2, 3-methyl-2-{7-[(3R)-1-methylpiperidin-3-yl]-7H-pyrrolo[2,3-c]pyridazin-3-yl}-5-(trifluoromethyl)phenol], half-maximal inhibition at NLRP3 inflammasome (IC50) was put at 5.26 nM. `Cc1cc(C(F)(F)F)cc(O)c1-c1cc2c(nn1)N([C@@H]1CCCN(C3CCOC3)C1)CC2` (mixture of isomers) [Example 57, 3-methyl-2-{7-[(3R)-1-(tetrahydrofuran-3-yl)piperidin-3-yl]-6,7-dihydro-5H-pyrrolo[2,3-c]pyridazin-3-yl}-5-(trifluoromethyl)phenol] returned an IC50 on NLRP3 inflammasome of 57.2 nM. Molecule `Cc1cc(C(F)(F)F)cc(O)c1-c1cc2ccn(C34CCCC(O)(C3)C4)c2nn1` [Example 88, 5-{3-[2-hydroxy-6-methyl-4-(trifluoromethyl)phenyl]-7H-pyrrolo[2,3-c]pyridazin-7-yl}bicyclo[3.1.1]heptan-1-ol] had an IC50 on NLRP3 inflammasome of 43.1 nM.

In turn, `Cc1cc(C(F)(F)F)cc(O)c1-c1ccc(CC2CCCN(C)C2)nn1` (racemic) [Example 93, 3-methyl-2-{6-[(1-methylpiperidin-3-yl)methyl]pyridazin-3-yl}-5-(trifluoromethyl)phenol] yielded an IC50 against NLRP3 inflammasome of 30.1 nM. Still for that read-out and setting: for `Cc1cc(C(F)(F)F)cc(O)c1-c1cc2c3ccccc3n([C@H]3C[C@@](C)(O)C3)c2nn1` [Example 81, 2-{9-[(1s,3s)-3-hydroxy-3-methylcyclobutyl]-9H-pyridazino[3,4-b]indol-3-yl}-3-methyl-5-(trifluoromethyl)phenol] the value was 54.7 nM. Same read-out and setting: for `Cc1cc(C(F)(F)F)cc(O)c1-c1cc2c(C3CC3)cn([C@H]3C[C@@](C)(O)C3)c2nn1` [Example 46, 2-[5-cyclopropyl-7-[(1s,3s)-3-hydroxy-3-methylcyclobutyl]-7H-pyrrolo[2,3-c]pyridazin-3-yl]-3-methyl-5-(trifluoromethyl)phenol] the value was 91.4 nM. Same read-out and setting: for `Cc1cc(C(F)(F)F)cc(O)c1-c1cc2c(nn1)N([C@@H]1CCCN(CC(C)(C)O)C1)CC2` [Example 58, 2-{7-[(3R)-1-(2-hydroxy-2-methylpropyl)piperidin-3-yl]-6,7-dihydro-5H-pyrrolo[2,3-c]pyridazin-3-yl}-3-methyl-5-(trifluoromethyl)phenol] the value was 55.8 nM. For `Cc1cc(C(F)(F)F)cc(O)c1-c1cc2c(C)cn(C34CCC(O)(C3)C4)c2nn1` [Example 70, 4-{3-[2-hydroxy-6-methyl-4-(trifluoromethyl)phenyl]-5-methyl-7H-pyrrolo[2,3-c]pyridazin-7-yl}bicyclo[2.1.1]hexan-1-ol], the IC50 against NLRP3 inflammasome was 31.2 nM.
